US7723527B2 (Janssen Pharmaceutica NV, priority 2003, dated 2010)
pIC50, pKi: −log10 of the molar value.

Legend:
human eosinophils = assay: Inhibition of histamine-induced eosinophil shape change (gated autofluorescence forward scatter assay); conditions: for effect on histamine-induced eosinophil shape change: human eosinophils, result in words
[1] = target: T1, human histamine H4 receptor (Homo sapiens, UniProt Q9H3N8); assay: Binding assay on recombinant human histamine H4 receptor (3H-histamine displacement); conditions: competition binding with 3H-histamine; membranes of SK-N-MC or COS7 cells expressing human H4 receptor; Cheng-Prusoff, KD 5 nM, ligand 5 nM
T1 construct: expressed in transfected cells; host or cells: SK-N-MC cells or COS7 cells, transiently transfected; cell membranes used
T1 sequence (Q9H3N8 whole entry): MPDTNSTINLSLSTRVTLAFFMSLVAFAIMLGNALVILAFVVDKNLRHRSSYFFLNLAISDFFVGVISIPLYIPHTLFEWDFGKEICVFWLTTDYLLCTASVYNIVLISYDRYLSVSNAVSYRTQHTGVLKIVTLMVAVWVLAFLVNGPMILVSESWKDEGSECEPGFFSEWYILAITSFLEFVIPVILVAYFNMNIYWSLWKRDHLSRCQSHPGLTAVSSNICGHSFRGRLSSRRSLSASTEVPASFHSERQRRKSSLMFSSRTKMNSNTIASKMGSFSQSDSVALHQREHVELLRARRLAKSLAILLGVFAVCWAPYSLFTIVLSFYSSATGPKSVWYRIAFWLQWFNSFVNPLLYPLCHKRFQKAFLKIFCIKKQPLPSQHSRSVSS
Method in brief: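 Membranes from SK-N-MC or COS7 cells transiently transfected with human H4R, incubated with ^3H-histamine (5-70 nM) at room temperature for 45 min, nonspecific binding with 10,000 nM histamine. Filtration and scintillation counting; compound affinity from displacement of ^3H-ligand across varying concentrations.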

[2] = histamine 0.01 μM, HR antagonist 10 μM or none
[3] = histamine 0.1 μM, HR antagonist 10 μM or none
[4] = histamine 1 μM, HR antagonist 10 μM or none
[5] = histamine 10 μM, HR antagonist 10 μM or none
[6] = histamine 0 μM, HR antagonist 10 μM

CN1CCN(C(=O)c2cc3cc(Cl)ccc3[nH]2)CC1 [(5-chloro-1H-indol-2-yl)-(4-methyl-piperazin-1-yl)-methanone]
pIC50 (human eosinophils; Homo sapiens, Eosinophil, read-out: IC50, inhibition of histamine-induced eosinophil shape change): 6.57

Cc1cc(Cl)cc2[nH]c(-c3ccnc(OCCCCC4CCN(C)CC4)c3Cl)nc12 [Example 163, 6-Chloro-2-{3-chloro-2-[4-(1-methyl-piperidin-4-yl)-butoxy]-pyridin-4-yl}-4-methyl-1H-benzoimidazole]
pKi [1]: 7.92

Cc1c(Cl)ccc2[nH]c(-c3ccnc(OCCCCC4CCN(C)CC4)c3Cl)nc12 [Example 164, 5-Chloro-2-{3-chloro-2-[4-(1-methyl-piperidin-4-yl)-butoxy]-pyridin-4-yl}-4-methyl-1H-benzoimidazole]
pKi [1]: 8.15

Cc1cnc(OCCCCC2CCN(C)CC2)cc1-c1nc2c(C)c(F)ccc2[nH]1 [Example 165, 5-Fluoro-4-methyl-2-{5-methyl-2-[4-(1-methyl-piperidin-4-yl)-butoxy]-pyridin-4-yl}-1H-benzoimidazole]
pKi [1]: 8.52

Cc1cnc(OCCCCC2CCN(C)CC2)cc1-c1nc2cc(Cl)c(F)cc2[nH]1 [Example 166, 5-Chloro-6-fluoro-2-{5-methyl-2-[4-(1-methyl-piperidin-4-yl)-butoxy]-pyridin-4-yl}-1H-benzoimidazole]
pKi [1]: 8.22

Cc1cnc(OCCCCC2CCN(C)CC2)cc1-c1nc2cc(C(C)(C)C)ccc2[nH]1 [Example 167, 5-tert-Butyl-2-{5-methyl-2-[4-(1-methyl-piperidin-4-yl)-butoxy]-pyridin-4-yl}-1H-benzoimidazole]
pKi [1]: 8.40

Cc1cnc(OCCCCC2CCN(C)CC2)cc1-c1nc2c(C)c(C)ccc2[nH]1 [Example 168, 4,5-Dimethyl-2-{5-methyl-2-[4-(1-methyl-piperidin-4-yl)-butoxy]-pyridin-4-yl}-1H-benzoimidazole]
pKi [1]: 8.22

Cc1cc(C)c2nc(-c3cc(OCCCCC4CCN(C)CC4)ncc3Cl)[nH]c2c1 [Example 169, 2-{5-Chloro-2-[4-(1-methyl-piperidin-4-yl)-butoxy]-pyridin-4-yl}-4,6-dimethyl-1H-benzoimidazole]
pKi [1]: 9.00

CN1CCC(CCCCOc2cc(-c3nc4cc(Cl)ccc4[nH]3)c(Cl)cn2)CC1 [Example 170, 5-Chloro-2-{5-chloro-2-[4-(1-methyl-piperidin-4-yl)-butoxy]-pyridin-4-yl}-1H-benzoimidazole]
pKi [1]: 8.30

CN1CCC(CCCCOc2cc(-c3nc4cc(Cl)c(F)cc4[nH]3)c(Cl)cn2)CC1 [Example 171, 5-Chloro-2-{5-chloro-2-[4-(1-methyl-piperidin-4-yl)-butoxy]-pyridin-4-yl}-6-fluoro-1H-benzoimidazole]
pKi [1]: 7.92

CN1CCC(CCCCOc2cc(-c3nc4cc(C(C)(C)C)ccc4[nH]3)c(Cl)cn2)CC1 [Example 172, 5-tert-Butyl-2-{5-chloro-2-[4-(1-methyl-piperidin-4-yl)-butoxy]-pyridin-4-yl}-1H-benzoimidazole]
pKi [1]: 9.00

CN1CCC(CCCCOc2cc(-c3nc4c(Cl)cccc4[nH]3)c(Br)cn2)CC1 [Example 173, 2-{5-Bromo-2-[4-(1-methyl-piperidin-4-yl)-butoxy]-pyridin-4-yl}-4-chloro-1H-benzoimidazole]
pKi [1]: 7.68

CN1CCC(CCCCOc2cc(-c3nc4cc(Cl)c(F)cc4[nH]3)c(Br)cn2)CC1 [Example 174, 2-{5-Bromo-2-[4-(1-methyl-piperidin-4-yl)-butoxy]-pyridin-4-yl}-5-chloro-6-fluoro-1H-benzoimidazole]
pKi [1]: 7.51

CN1CCC(CCCCOc2cc(-c3nc4cc(Cl)ccc4[nH]3)c(Br)cn2)CC1 [Example 175, 2-{5-Bromo-2-[4-(1-methyl-piperidin-4-yl)-butoxy]-pyridin-4-yl}-5-chloro-1H-benzoimidazole]
pKi [1]: 8.22

Cc1c(F)ccc2[nH]c(-c3ccc(OCCCC4CCN(C)CC4)cc3CO)nc12 [Example 176, {2-(5-Fluoro-4-methyl-1H-benzoimidazol-2-yl)-5-[3-(1-methyl-piperidin-4-yl)-propoxy]-phenyl}-methanol]
pKi [1]: 8.40

Cc1cc(C)c2nc(-c3cc(OCCCCC4CCN(C)CC4)ncc3CO)[nH]c2c1 [Example 177, {4-(4,6-Dimethyl-1H-benzoimidazol-2-yl)-6-[4-(1-methyl-piperidin-4-yl)-butoxy]-pyridin-3-yl}-methanol]
pKi [1]: 8.40

NCCc1c[nH]cn1 [Histamine, histamine]
Fold Change (eosinophil shape change) (human eosinophils; [2]): 1.01 | Fold Change (eosinophil shape change) (human eosinophils; [3]): 1.21 | Fold Change (eosinophil shape change) (human eosinophils; [4]): 1.31 | Fold Change (eosinophil shape change) (human eosinophils; [5]): 1.34

CN(C)CCOC(c1ccccc1)c1ccccc1 [diphenhydramine]
Fold Change (eosinophil shape change) (human eosinophils; [6]): 1.00 | Fold Change (eosinophil shape change) (human eosinophils; [2]): 1.03 | Fold Change (eosinophil shape change) (human eosinophils; [3]): 1.18 | Fold Change (eosinophil shape change) (human eosinophils; [4]): 1.50 | Fold Change (eosinophil shape change) (human eosinophils; [5]): 1.63 | effect on histamine-induced eosinophil shape change (human eosinophils): did not alter the histamine-induced shape change

CNC(=C[N+](=O)[O-])NCCSCc1ccc(CN(C)C)o1 [ranatidine]
Fold Change (eosinophil shape change) (human eosinophils; [6]): 1.00 | Fold Change (eosinophil shape change) (human eosinophils; [2]): 1.04 | Fold Change (eosinophil shape change) (human eosinophils; [3]): 1.21 | Fold Change (eosinophil shape change) (human eosinophils; [4]): 1.49 | Fold Change (eosinophil shape change) (human eosinophils; [5]): 1.64 | effect on histamine-induced eosinophil shape change (human eosinophils): did not alter the histamine-induced shape change
